Reference: PMC8252737 (Angewandte Chemie (International Ed. in English), 2021)

How the values were obtained:
EV D68 3C protease [1] = target: T1, EV D68 3C protease (Enterovirus D68, UniProt A1E4A3); assay: Fragment ligation screening / FRET assay of fragments and aldehyde 1; assay type: biochemical; conditions: fragment 19 μM + aldehyde 1 19 μM, 2 h incubation, p<0.05
T1 sequence (A1E4A3 1549-1731): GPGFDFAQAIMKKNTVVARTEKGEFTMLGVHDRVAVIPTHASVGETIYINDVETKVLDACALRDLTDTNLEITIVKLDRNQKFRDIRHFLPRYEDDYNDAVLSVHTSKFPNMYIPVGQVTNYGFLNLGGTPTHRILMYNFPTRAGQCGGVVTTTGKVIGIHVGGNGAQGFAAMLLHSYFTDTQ

EV D68 3C protease [2] = target: T1, EV D68 3C protease; assay: Tryptic digest and MS of protein-inhibitor complex; assay type: binding; conditions: trypsin digest of protein-inhibitor complex

Row | SMILES | Inhibition of the protease in combination with aldehyde 1 compared to the aldehyde alone (EV D68 3C protease [1]) | Alkylation of the 13mer peptide containing Cys147 (EV D68 3C protease [2])
1 | CCOC(=O)CC#N [Compound F1, O‐ethyl 2‐cyano‐acetate] | significantly increased inhibition | 
2 | CCOC(=O)C=Cc1cccc(C(N)=O)c1 [Compound 13, O‐ethyl 3‐carbamoyl‐cinnamoyl ester] |  | complete alkylation
3 | CC(=O)CC#N [Compound F4, 3‐oxo‐butane nitrile] | significantly increased inhibition | 
